# Test results taken from patent publication US20030153538A1, “Antitumor agent” (The Nisshin OilliO, Ltd., priority 2000, published 2003).
# “Also recorded” adds a separate entry of the source. Read-outs that look alike come from different tables or passages of the source.
# What was measured:
# B-16 melanoma cells = assay: Tests for tumor cell-proliferation-inhibitory effect and tumor cell-extinction (cell growth rate from viable cell count); assay type: cell-based; details: for tumor cell-killing effect (in words): at not less than 2 times the concentration required for proliferation inhibition
# Experimental: The tumor cell-proliferation-inhibitory effect and the tumor cell-killing or extinction effect can be determined according to the following method using B-16 melanoma cells.
# More specifically, B-16 melanoma cells are inoculated in each well of a 6-well plate in a desired amount, followed by allowing the plate to stand at 37° C. and 5% carbon dioxide concentration to thus cultivate the cells, adding a sample solution to be tested (maslinic acid, erythrodiol, ursolic acid, uvaol, betulinic acid, betulin and physiologically acceptable salts thereof or derivatives thereof) to each well in an amount sufficient for achieving a desired concentration, on the next day or after 5 days from the initiation of the cultivation, determination of viable cell count on the 6th day after the initiation of the cultivation and calculation of the cell growth rate based on the viable cell count to thus evaluate the tumor cell-proliferation-inhibitory effect and the tumor cell-killing effect.
# Tests for determining the tumor cell-proliferation-inhibitory effect and the tumor cell-killing effect were conducted according to the following method. To a 6-well plate, a culture medium was dispensed in an amount of 2 mL/well, B-16 melanoma cells were then inoculated in a desired quantity and thereafter the melanoma cells were cultivated by allowing the plate or the culture medium to stand at 37° C. and a carbon dioxide concentration of 5%. On the following day, a test sample solution prepared was added to and admixed with the content of each well to a desired concentration and the cultivation of the melanoma cells was continued. The culture medium was then exchanged on the 5th day from the initiation of the cultivation and the test sample solution was again added to each well. On the next day, the culture medium was removed to recover the cultivated melanoma cells, followed by washing the cells with PBS (phosphate buffered saline), determination of the viable cell count, and then calculation of the cell growth rate according to the following equation 1. The tumor cell-proliferation-inhibitory effect and the tumor cell-killing effect of each test sample were evaluated on the basis of the cell growth rate thus determined.
# Cell Growth Rate (%)=(A/B)×100
# As comparative examples, oleanolic acid, β-amyrin, α-amyrin and lupeol were added to the culture medium to thus determine and evaluate the cell growth rate by the same method used above.
# B16 melanoma cells = assay: Test for malignant melanoma metastasis-inhibitory effect (lung metastasis after i.v. injection of B16 melanoma cells); assay type: in vivo, Whister female rats; details: rats; for RMI (rate of metastasis-inhibition): every other day, lung lesions on 15th day; for tumor cell-metastasis-inhibitory effect compared with the control group (in words): metastasis of cancer to lung, summary of Table 2
# Experimental: The tumor cell-metastasis-inhibitory effect can be evaluated according to, for instance, the malignant melanoma metastasis-inhibitory test. More specifically, a suspension of B16 melanoma cells prepared in advance is intravenously injected into Whister female rats, cotton seed oil in which each test substance is dissolved in a predetermined concentration is intraperitoneally administered through injection or orally administered using a sonde, every second day starting from 2nd day after the intravenous injection of the suspension. In this connection, only cotton seed oil is administered to the control group of animals. The lungs are extracted from these animals on the 15th day after the injection of the B16 melanoma cells, the lungs are examined to determine the number of cancer lesions thus metastasized to thus calculate the rate of metastasis-inhibition. The tumor cell-metastasis-inhibitory effect of each test sample is evaluated on the basis of the resulting rate of metastasis-inhibition.
# Tests for evaluating the malignant melanoma metastasis-inhibitory effect of each test sample were conducted according to the following method. Whister female rats (6-week-old; average body weight: 160 g) were preliminarily bred with a powdery feed preparation having a composition of AIN-93 for one week, these animals were divided into 5 groups (8 animals per group) so as to equalize the average body weight and then a previously prepared suspension of B16 melanoma cells was intravenously injected into each rat. Subsequently, these animals were bred with a powdery feed preparation having a composition of AIN-93 and cotton seed oil in which each of maslinic acid, erythrodiol, ursolic acid, uvaol, betulinic acid, betulin, compounds of Synthetic Examples 1 and 2, or oleanolic acid had been dissolved in a predetermined concentration was intraperitoneally injected into each animal or orally administered thereto using a sonde, every other day starting from the 2nd day after the injection of the B 16 melanoma cells. In this connection, only cotton seed oil was administered to the control group. On the 15th day after the injection of the B 16 melanoma cells, the lung of each animal was taken out, the lungs were examined to determine the number of cancer lesions thus metastasized and to thus calculate the rate of metastasis-inhibition in accordance with the following equation 2. The tumor cell-metastasis-inhibitory effect of each test sample could be evaluated on the basis of the resulting rate of metastasis-inhibition.
# Rate of Metastasis-Inhibition (%)=[(D−C)/D]×100
# Wherein C: Average number of cancer lesions metastasized observed in each animal group; and D: average number of cancer lesions metastasized observed in the control group.
# Maslinic acid, erythrodiol, ursolic acid, uvaol, betulinic acid, betulin and physiologically acceptable salts thereof or derivatives thereof as well as cotton seed oil as the control were inspected for the rate of metastasis-inhibition (RMI) using the dose and administration methods specified in the following Table 2. In addition, the same procedures used above were repeated except for using oleanolic acid as a comparative sample to thus evaluate the rate of metastasis-inhibition (RMI) thereof.
# [1] = Mus musculus, B16, 144 h, 5 ppm, viable cell count vs control on 6th day, read-out: Cell Growth Rate
# [2] = Mus musculus, B16, 144 h, 15 ppm, viable cell count vs control on 6th day, read-out: Cell Growth Rate
# [3] = Mus musculus, B16, 144 h, 25 ppm, viable cell count vs control on 6th day, read-out: Cell Growth Rate
# [4] = Mus musculus, B16, 144 h, viable cell count vs control on 6th day
# [5] = 100 mg/body wt. (kg), Oral Adm.
# [6] = 5 ppm, viable cell count vs control on 6th day
# [7] = 10 ppm, viable cell count vs control on 6th day
# [8] = 15 ppm, viable cell count vs control on 6th day
# [9] = 20 ppm, viable cell count vs control on 6th day
# [10] = 25 ppm, viable cell count vs control on 6th day
# [11] = Mus musculus, B16, 144 h, 20 ppm, viable cell count vs control on 6th day, read-out: Cell Growth Rate
SMILES,activity at 5 ppm (B-16 melanoma cells; [1]),activity at 15 ppm (B-16 melanoma cells; [2]),activity at 25 ppm (B-16 melanoma cells; [3]),activity at 50 ppm (B-16 melanoma cells; [4]),tumor cell-proliferation-inhibitory effect (in words) (B-16 melanoma cells; summary of Table 1),RMI (rate of metastasis-inhibition) (B16 melanoma cells; [5]),tumor cell-metastasis-inhibitory effect compared with the control group (in words) (B16 melanoma cells),Cell Growth Rate (B-16 melanoma cells; [6]),Cell Growth Rate (B-16 melanoma cells; [7]),Cell Growth Rate (B-16 melanoma cells; [8]),Cell Growth Rate (B-16 melanoma cells; [9]),Cell Growth Rate (B-16 melanoma cells; [10]),tumor cell-killing effect (in words) (B-16 melanoma cells),further results
C=C(C)[C@@H]1CC[C@]2(CO)CC[C@]3(C)[C@H](CC[C@@H]4[C@@]5(C)CC[C@H](O)C(C)(C)[C@@H]5CC[C@]43C)[C@@H]12 [Betulin],100%,78%,72%,63%,quite strong tumor cell-proliferation-inhibitory effects,38.9%,significantly (P<0.05) inhibit any metastasis of cancer to lung,–,–,–,–,–,–,–
"CC1(C)CC[C@]2(C(=O)O)CC[C@]3(C)C(=CC[C@@H]4[C@@]5(C)C[C@@H](O)[C@H](O)C(C)(C)[C@@H]5CC[C@]43C)[C@@H]2C1 [Purified maslinic acid 2, maslinic acid]",–,–,–,–,–,78.6%,–,–,–,–,–,–,–,"activity at 5 ppm (B-16 melanoma cells; Mus musculus, B16, 144 h, read-out: Cell Growth Rate, 5 ppm, viable cell count vs control on 6th day): 75%; activity at 10 ppm (B-16 melanoma cells; Mus musculus, B16, 144 h, read-out: Cell Growth Rate, 10 ppm, viable cell count vs control on 6th day): 47%; activity at 15 ppm (B-16 melanoma cells; Mus musculus, B16, 144 h, read-out: Cell Growth Rate, 15 ppm, viable cell count vs control on 6th day): 11%; activity at 20 ppm (B-16 melanoma cells; Mus musculus, B16, 144 h, read-out: Cell Growth Rate, 20 ppm, viable cell count vs control on 6th day): 0%; activity at 25 ppm (B-16 melanoma cells; Mus musculus, B16, 144 h, read-out: Cell Growth Rate, 25 ppm, viable cell count vs control on 6th day): 0%; RMI (rate of metastasis-inhibition) (B16 melanoma cells; 50 mg/body wt. (kg), I.P. Adm.): 67.3%"
"CCOC(=O)[C@]12CCC(C)(C)C[C@H]1C1=CC[C@@H]3[C@@]4(C)C[C@@H](O)[C@H](O)C(C)(C)[C@@H]4CC[C@@]3(C)[C@]1(C)CC2 [Comp. Of Synthetic Ex. 1, maslinic acid ethyl ester]",–,–,–,–,–,77.6%,–,73%,49%,18%,0%,0%,–,–
CC1(C)CC[C@]2(CO)CC[C@]3(C)C(=CC[C@@H]4[C@@]5(C)CC[C@H](O)C(C)(C)[C@@H]5CC[C@]43C)[C@@H]2C1 [Erythrodiol],73%,69%,53%,43%,quite strong tumor cell-proliferation-inhibitory effects,56.3%,significantly (P<0.05) inhibit any metastasis of cancer to lung,–,–,–,–,–,–,–
CC1(C)CC[C@]2(C(=O)O)CC[C@]3(C)C(=CC[C@@H]4[C@@]5(C)C[C@@H](O)[C@H](O)C(C)(C)[C@@H]5CC[C@]43C)[C@@H]2C1 [maslinic acid],–,–,–,–,quite strong tumor cell-proliferation-inhibitory effects,–,significantly (P<0.05) inhibit any metastasis of cancer to lung,–,–,–,–,–,quite intensive tumor cell-killing effects,–
"CC1(C)CC[C@]2(C(=O)O)CC[C@]3(C)C(=CC[C@@H]4[C@@]5(C)C[C@@H](O)[C@H](O)C(C)(C)[C@@H]5CC[C@]43C)[C@@H]2C1 [Purified maslinic acid 1, maslinic acid]",–,–,–,–,–,–,–,67%,43%,6%,0%,0%,–,"RMI (rate of metastasis-inhibition) (B16 melanoma cells; 50 mg/body wt. (kg), Oral Adm.): 61.4%"
C[C@H]1[C@H](C)CC[C@]2(C(=O)O)CC[C@]3(C)C(=CC[C@@H]4[C@@]5(C)CC[C@H](O)C(C)(C)[C@@H]5CC[C@]43C)[C@H]12 [Ursolic acid],64%,3%,0%,0%,quite strong tumor cell-proliferation-inhibitory effects,79.5%,significantly (P<0.05) inhibit any metastasis of cancer to lung,–,–,–,–,–,quite intensive tumor cell-killing effects,"activity at 10 ppm (B-16 melanoma cells; Mus musculus, B16, 144 h, 10 ppm, viable cell count vs control on 6th day, read-out: Cell Growth Rate): 40%; activity at 20 ppm (B-16 melanoma cells; [11]): 0%"
C[C@H]1[C@H](C)CC[C@]2(CO)CC[C@]3(C)C(=CC[C@@H]4[C@@]5(C)CC[C@H](O)C(C)(C)[C@@H]5CC[C@]43C)[C@H]12 [Uvaol],80%,69%,49%,30%,quite strong tumor cell-proliferation-inhibitory effects,43.7%,significantly (P<0.05) inhibit any metastasis of cancer to lung,–,–,–,–,–,–,–
"CC(=O)O[C@@H]1C[C@]2(C)[C@H]3CC=C4[C@@H]5CC(C)(C)CC[C@]5(C(=O)O)CC[C@@]4(C)[C@]3(C)CC[C@H]2C(C)(C)[C@H]1OC(C)=O [Comp. Of Synthetic Ex. 2, 2,3-O-di-acetyl-maslinic acid]",–,–,–,–,–,74.8%,–,89%,63%,34%,4%,0%,–,–
"CC1(C)CC[C@]2(C(=O)O)CC[C@]3(C)C(=CC[C@@H]4[C@@]5(C)CC[C@H](O)C(C)(C)[C@@H]5CC[C@]43C)[C@@H]2C1 [Oleanolic acid, oleanolic acid, reference compound]",–,100%,100%,94%,cannot inhibit the proliferation of the B-16 melanoma cells at all,–,does not possess any tumor cell-metastasis-inhibitory effect; also recorded: Any significant effect was not observed,–,–,–,–,–,not observed,"activity at 20 ppm (B-16 melanoma cells; [11]): 100%; activity at 30 ppm (B-16 melanoma cells; Mus musculus, B16, 144 h, 30 ppm, viable cell count vs control on 6th day): 100%; activity at 40 ppm (B-16 melanoma cells; Mus musculus, B16, 144 h, 40 ppm, viable cell count vs control on 6th day): 100%; tumor cell-proliferation-inhibitory effect (in words) (B-16 melanoma cells; summary of Table 1, listed as oleanolic acid): quite weak tumor cell-proliferation-inhibitory effect only at a higher concentration; RMI (rate of metastasis-inhibition) (B16 melanoma cells; 300 mg/body wt. (kg), Oral Adm.): 9.2%"
